In ChEMBL document CHEMBL4145493, “Tetrahydroacridine derivatives with dichloronicotinic acid moiety as attractive, multipotent agents for Alzheimer's disease treatment” (Eur J Med Chem, 2018):

What was measured:
[1] = biological target: Acetylcholinesterase (Electrophorus electricus, UniProt O42275); assay: Inhibition of electric eel AChE using acetylthiocholine iodide as substrate after 10 mins by Ellman's method
[2] = biological target: Cholinesterase (Equus caballus, UniProt P81908); assay: Inhibition of equine serum BuChE using acetylthiocholine iodide as substrate after 8 mins by Ellman's method
[3] = tested on: AChE (electric eel); assay: Selectivity index, ratio of IC50 for human A549 cells to IC50 for electric eel AChE; type: toxicity; settings: read-out: Ratio IC50
[4] = tested on: BuChE (equine serum); assay: Selectivity index, ratio of IC50 for human A549 cells to IC50 for equine serum BuChE; type: toxicity; settings: read-out: Ratio IC50
[5] = biological target: Amyloid-beta precursor protein (Homo sapiens) (UniProt P05067); assay: Inhibition of self-induced amyloid beta (1 to 42) (unknown origin) aggregation at 25 uM measured after 24 hrs by ThT fluorescence assay relative to control
[6] = Cytotoxicity against human A549 cells assessed as cell viability at 0.9 uM after 48 hrs by MTT assay relative to control; type: cell-based; settings: read-out: Activity
[7] = biological target: T1, Hyaluronidase (Bos taurus, UniProt Q8SQG8+Q5E985); assay: Inhibition of bovine testes hyaluronidase using hyaluronic acid as substrate preincubated for 10 mins in dark followed by incubation with substrate for 45 mins and subsequent addition of serum albumin measured after 10 mins by turbidimetric method; type: protein assay
T1 sequence (Q8SQG8 whole entry): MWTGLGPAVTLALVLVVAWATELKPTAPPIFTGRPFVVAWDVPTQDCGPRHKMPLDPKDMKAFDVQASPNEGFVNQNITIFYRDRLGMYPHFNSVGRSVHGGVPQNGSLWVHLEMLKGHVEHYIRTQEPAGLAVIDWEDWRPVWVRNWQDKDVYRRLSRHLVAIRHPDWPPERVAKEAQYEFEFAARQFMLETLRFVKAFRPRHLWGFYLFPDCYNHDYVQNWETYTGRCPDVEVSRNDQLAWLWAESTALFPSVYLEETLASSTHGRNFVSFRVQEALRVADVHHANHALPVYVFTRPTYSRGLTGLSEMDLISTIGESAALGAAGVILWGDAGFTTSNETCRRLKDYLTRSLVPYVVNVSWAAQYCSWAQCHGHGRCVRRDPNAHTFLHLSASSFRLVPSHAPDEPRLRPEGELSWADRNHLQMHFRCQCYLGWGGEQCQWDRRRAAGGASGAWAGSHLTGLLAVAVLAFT
T1 sequence (Q5E985 whole entry): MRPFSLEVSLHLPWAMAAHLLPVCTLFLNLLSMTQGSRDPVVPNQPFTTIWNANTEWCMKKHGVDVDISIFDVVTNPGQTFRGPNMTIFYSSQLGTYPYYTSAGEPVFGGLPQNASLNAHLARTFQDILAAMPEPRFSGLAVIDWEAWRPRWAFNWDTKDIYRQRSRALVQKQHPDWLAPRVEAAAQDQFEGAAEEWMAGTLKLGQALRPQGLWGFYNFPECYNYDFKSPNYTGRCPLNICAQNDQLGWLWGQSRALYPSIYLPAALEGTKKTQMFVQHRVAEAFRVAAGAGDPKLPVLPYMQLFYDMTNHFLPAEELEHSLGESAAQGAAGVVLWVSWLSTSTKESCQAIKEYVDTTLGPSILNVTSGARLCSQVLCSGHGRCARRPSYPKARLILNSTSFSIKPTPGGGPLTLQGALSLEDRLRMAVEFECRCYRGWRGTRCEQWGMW

[8] = biological target: Amyloid-beta precursor protein (Homo sapiens) (UniProt P05067); assay: Inhibition of self-induced amyloid beta (1 to 42) (unknown origin) aggregation at 50 uM measured after 24 hrs by ThT fluorescence assay relative to control
[9] = tested on: A549; assay: Cytotoxicity against human A549 cells assessed as cell viability after 48 hrs by MTT assay; type: cell-based; settings: A549, 48 h
[10] = biological target: Amyloid-beta precursor protein (Homo sapiens) (UniProt P05067); assay: Inhibition of self-induced amyloid beta (1 to 42) (unknown origin) aggregation at 10 uM measured after 24 hrs by ThT fluorescence assay relative to control
[11] = Cytotoxicity against human A549 cells assessed as cell viability at 2.3 uM after 48 hrs by MTT assay relative to control; type: cell-based; settings: read-out: Activity
[12] = biological target: Amyloid-beta precursor protein (Homo sapiens) (UniProt P05067); assay: Inhibition of self-induced amyloid beta (1 to 42) (unknown origin) aggregation at 5 uM measured after 24 hrs by ThT fluorescence assay relative to control

Chain of Amyloid-beta precursor protein (Homo sapiens) (P05067 whole entry): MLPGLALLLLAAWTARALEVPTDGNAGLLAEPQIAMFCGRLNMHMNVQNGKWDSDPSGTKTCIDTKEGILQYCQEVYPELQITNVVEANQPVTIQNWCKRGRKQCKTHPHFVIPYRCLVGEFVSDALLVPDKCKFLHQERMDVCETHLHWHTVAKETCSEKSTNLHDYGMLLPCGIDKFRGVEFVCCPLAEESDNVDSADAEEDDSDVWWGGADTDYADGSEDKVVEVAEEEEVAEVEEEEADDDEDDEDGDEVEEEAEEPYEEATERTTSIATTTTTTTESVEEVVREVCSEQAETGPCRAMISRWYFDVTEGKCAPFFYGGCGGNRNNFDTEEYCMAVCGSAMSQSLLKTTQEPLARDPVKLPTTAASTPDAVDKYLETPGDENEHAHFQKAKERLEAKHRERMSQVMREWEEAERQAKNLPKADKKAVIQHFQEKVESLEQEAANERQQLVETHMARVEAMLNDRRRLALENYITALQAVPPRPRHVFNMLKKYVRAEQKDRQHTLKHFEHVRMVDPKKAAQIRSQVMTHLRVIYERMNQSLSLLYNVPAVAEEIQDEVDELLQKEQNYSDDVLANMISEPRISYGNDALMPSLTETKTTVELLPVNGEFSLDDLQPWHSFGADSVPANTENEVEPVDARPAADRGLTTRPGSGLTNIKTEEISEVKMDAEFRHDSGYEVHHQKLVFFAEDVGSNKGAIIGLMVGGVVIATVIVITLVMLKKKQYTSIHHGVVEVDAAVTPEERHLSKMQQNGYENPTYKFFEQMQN
Chain of Cholinesterase (P81908 whole entry): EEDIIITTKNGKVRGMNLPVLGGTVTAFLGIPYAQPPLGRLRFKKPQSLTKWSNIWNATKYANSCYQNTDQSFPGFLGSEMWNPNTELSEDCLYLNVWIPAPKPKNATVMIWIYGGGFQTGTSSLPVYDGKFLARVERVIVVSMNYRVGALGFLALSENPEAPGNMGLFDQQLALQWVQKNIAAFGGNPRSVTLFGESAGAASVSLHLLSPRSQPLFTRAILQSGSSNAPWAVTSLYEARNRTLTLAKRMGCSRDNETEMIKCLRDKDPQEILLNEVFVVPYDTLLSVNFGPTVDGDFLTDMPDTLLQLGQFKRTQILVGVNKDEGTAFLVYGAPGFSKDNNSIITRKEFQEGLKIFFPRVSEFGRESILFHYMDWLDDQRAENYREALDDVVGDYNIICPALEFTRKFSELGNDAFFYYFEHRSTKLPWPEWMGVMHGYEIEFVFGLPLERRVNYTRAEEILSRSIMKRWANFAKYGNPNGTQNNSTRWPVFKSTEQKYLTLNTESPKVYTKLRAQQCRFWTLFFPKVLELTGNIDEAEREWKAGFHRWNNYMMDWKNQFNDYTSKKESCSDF
Chain of Acetylcholinesterase (O42275 whole entry): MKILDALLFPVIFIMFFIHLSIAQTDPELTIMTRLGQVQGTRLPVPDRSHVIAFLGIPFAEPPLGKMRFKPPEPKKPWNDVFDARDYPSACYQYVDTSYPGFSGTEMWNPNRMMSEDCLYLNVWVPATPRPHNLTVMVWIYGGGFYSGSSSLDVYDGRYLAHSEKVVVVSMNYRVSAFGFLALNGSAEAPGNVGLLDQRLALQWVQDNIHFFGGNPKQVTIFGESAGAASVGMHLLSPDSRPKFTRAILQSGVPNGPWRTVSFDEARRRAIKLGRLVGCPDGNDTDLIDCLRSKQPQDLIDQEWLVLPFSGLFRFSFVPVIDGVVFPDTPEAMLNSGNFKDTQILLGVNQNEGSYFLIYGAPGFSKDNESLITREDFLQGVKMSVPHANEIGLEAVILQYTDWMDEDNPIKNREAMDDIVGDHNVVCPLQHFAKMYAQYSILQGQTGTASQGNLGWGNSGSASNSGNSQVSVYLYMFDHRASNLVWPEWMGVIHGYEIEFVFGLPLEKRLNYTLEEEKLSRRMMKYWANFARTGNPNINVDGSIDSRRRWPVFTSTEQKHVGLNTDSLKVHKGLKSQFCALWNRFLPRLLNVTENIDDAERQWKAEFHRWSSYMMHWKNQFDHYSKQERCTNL

Compound | IC50 [1] [µM] | IC50 [2] [µM] | further results
O=C(NCCCCCNc1c2c(nc3ccccc13)CCCC2)c1cnc(Cl)c(Cl)c1 | 0.0029 | 0.0135 | 
Cl.O=C(NCCCNc1c2c(nc3ccccc13)CCCC2)c1cnc(Cl)c(Cl)c1 | 0.00102 | 0.16 | selectivity ratio [3]: 1960; selectivity ratio [4]: 13; inhibition [5]: 31.1%; viability at 48 h, 0.9 µM [6]: 82.3%; IC50 [7]: 465.75 µM; inhibition [8]: 46.6%; IC50 [9]: 2 µM; inhibition [10]: 26.6%; viability at 48 h, 2.3 µM [11]: 46%; inhibition [12]: 19.4%
O=C(NCCCCCCNc1c2c(nc3ccccc13)CCCC2)c1cnc(Cl)c(Cl)c1 | 0.0042 | 0.0129 | 
O=C(NCCNc1c2c(nc3ccccc13)CCCC2)c1cnc(Cl)c(Cl)c1 | 0.0167 | 0.726 | 
O=C(NCCCCNc1c2c(nc3ccccc13)CCCC2)c1cnc(Cl)c(Cl)c1 | 0.00165 | 0.0414 | 
O=C(NCCCCCCCCCNc1c2c(nc3ccccc13)CCCC2)c1cnc(Cl)c(Cl)c1 | 0.00312 | 0.00333 | 
O=C(NCCCCCCCCNc1c2c(nc3ccccc13)CCCC2)c1cnc(Cl)c(Cl)c1 | 0.0103 | 0.0107 | 
O=C(NCCCCCCCNc1c2c(nc3ccccc13)CCCC2)c1cnc(Cl)c(Cl)c1 | 0.0123 | 0.0114 | 
